PubChem BioAssay AID493062 (The Scripps Research Institute Molecular Screening Center, 2011)

What was measured:
2B4/BCL-2 = experiment: MCL-1-selective apoptosis induction in 2B4 cells – cell-based, fluorescence, assay provider data, selectivity assay for MCL1-BIM inhibitor project, late-stage follow-up (AID 493062); conditions: 2B4/MCL-1 caspase activation fluorescence
2B4/MCL-1 = experiment: as above; conditions: 2B4/MCL-1 caspase activation fluorescence

Row | Compound | EC50 (2B4/BCL-2) | EC50 (2B4/MCL-1)
1 | Cc1ccc(-c2cc(C(=O)NCC(c3ccccc3)N(C)C)c3ccccc3n2)o1 (centres undefined) | > 25 µM | > 25 µM
2 | O=C(Nc1ccc(F)cc1F)c1cc(-c2ccco2)nc2ccccc12 | > 25 µM | > 25 µM
3 | COc1ccc(Cc2nnc(NC(=O)Cc3sc(=S)[nH]c3C)s2)cc1OC | > 25 µM | > 25 µM
4 | CCOc1cc(N2CCOCC2)c(OCC)cc1NC(=O)c1cc(-c2ccco2)nc2ccccc12 | > 25 µM | > 25 µM
5 | Cc1ccc2nc(NC(=O)c3cc(-c4ccco4)nc4ccccc34)sc2c1 | > 25 µM | > 25 µM
6 | Cc1csc(NC(=O)c2cc(-c3ccco3)nc3ccccc23)n1 | > 25 µM | > 25 µM
7 | Cc1ccc(-c2cc(C(=O)N(C)CC(=O)Nc3ccccc3Br)c3ccccc3n2)o1 | > 25 µM | > 25 µM
8 | O=C(c1cc(-c2ccco2)nc2ccccc12)N(Cc1nnc(-c2ccc(Cl)cc2)o1)C1CC1 | > 25 µM | > 25 µM
9 | O=C(NCCCN1CCOCC1)c1cc(-c2ccco2)nc2ccccc12 | > 25 µM | > 25 µM
10 | COc1ccc(Cc2nnc(NC(=O)Cc3ccc(N(C)C)cc3)s2)cc1OC | > 25 µM | > 25 µM
11 | O=C(NC1CC1)c1cc(-c2ccco2)nc2ccccc12 | > 25 µM | > 25 µM
12 | O=C(Nc1nc2ccccc2s1)c1cc(-c2ccco2)nc2ccccc12 | > 25 µM | > 25 µM
13 | O=C(Nc1cccc(S(=O)(=O)NC2=NCCCCC2)c1)c1cc(-c2ccco2)nc2ccccc12 | > 25 µM | > 25 µM
14 | Cc1ccc(NC(=O)c2cc(-c3ccco3)nc3ccccc23)cc1S(=O)(=O)N1CCOCC1 | > 25 µM | > 25 µM
15 | CCCC(=O)Nc1nnc(Cc2ccccc2)s1 | > 25 µM | > 25 µM
16 | Cc1ccc(-c2cc(C(=O)Nc3ccccc3C)c3ccccc3n2)o1 | > 25 µM | > 25 µM
17 | O=C(Nc1nccs1)c1cc(-c2ccco2)nc2ccccc12 | > 25 µM | > 25 µM
18 | COc1ccccc1NC(=O)c1cc(-c2ccc(C)o2)nc2ccccc12 | > 25 µM | > 25 µM
19 | CN(C)C(CNC(=O)c1cc(-c2ccco2)nc2ccccc12)c1ccccc1 (centres undefined) | > 25 µM | > 25 µM
20 | O=C(c1cc(-c2ccco2)nc2ccccc12)N1CCN(c2ccc(F)cc2)CC1 | > 25 µM | > 25 µM
21 | O=C(Nc1ccccn1)c1cc(-c2ccco2)nc2ccc(Br)cc12 | 3 µM | > 25 µM
22 | COc1ccc(Cc2nnc(NC(=O)C3(c4ccccc4)CC3)s2)cc1OC | > 25 µM | > 25 µM
